Several values for one entry are separate records, joined by “and”; a condition that tells them apart may be missing. Identical values can stand only once.
Columns and labels:
[1] = system: AT1 receptor; conditions: Cys76 accessible; cited from earlier work
[2] = target: T1, wild-type (WT) AT1 receptor (Rattus norvegicus, UniProt P25095); experiment: inositol phosphate (IP) production in COS1 cells expressing WT AT1 receptor; conditions: 1 µM compound, vs basal IP production
T1 sequence (P25095 1-359): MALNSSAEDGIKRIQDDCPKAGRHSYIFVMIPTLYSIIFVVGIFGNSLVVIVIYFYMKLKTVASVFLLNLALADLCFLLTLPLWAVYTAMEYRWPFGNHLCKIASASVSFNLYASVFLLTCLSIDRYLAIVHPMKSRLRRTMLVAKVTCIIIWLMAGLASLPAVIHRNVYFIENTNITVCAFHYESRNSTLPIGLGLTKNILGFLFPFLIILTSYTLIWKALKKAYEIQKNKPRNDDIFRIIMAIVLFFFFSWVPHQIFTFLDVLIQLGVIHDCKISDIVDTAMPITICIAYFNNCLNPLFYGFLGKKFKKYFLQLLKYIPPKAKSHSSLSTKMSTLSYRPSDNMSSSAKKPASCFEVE
Procedure: The test compounds were added 1 h before the measurement of IP.
The WT and mutant AT1 receptors were transiently transfected into COS1 cells using Lipofectamine 2000 liposomal reagent (Roche Applied Science) according to the manufacturer’s instructions.
Cells expressing the WT and mutant AT1 receptors were incubated for 30 minutes at 22°C with or without the indicated concentrations of ARBs. The cells were washed-out once with the use of excess cold HBSS, and used in an IP production study. Total soluble IP was measured by the perchloric acid extraction method, as described previously [16].

[3] = target: T2, AT1 wild-type (WT) receptor (Rattus norvegicus, UniProt P25095); experiment: 125I-[Sar1,Ile8]AngII competition binding, wild-type receptor; conditions: WT; for Kd: COS1 cell membranes, 100 pM 125I-[Sar1,Ile8]AngII, 1 h 22°C, read-out: Binding affinity (Kd); for Kd ratio relative to olmesartan (in parentheses): compound Kd / olmesartan Kd
T2 construct: expressed in transfected cells; host or cells: COS1
T2 sequence (P25095 1-359): T1 sequence (P25095 1-359)
Procedure: The Kd and Bmax values of receptor binding were determined by ^125I-[Sar^1, Ile^8] […] Membranes expressing the WT or mutant AT1 receptors were incubated with 100 pM ^125I-[Sar^1, Ile^8] […] The binding reaction was terminated by filtering the incubation mixture through Whatman GF/C glass filters, and the residues were extensively washed further with binding buffer. The bound ligand fraction was determined from the counts per minute (cpm) remaining on the membrane. Binding kinetics values were determined as previously described.

For `CS(=O)(=O)SCCN` [MTSEA^+, methanethiosulphonate ethyl-ammonium], the “% inhibition of 125I-[Sar1,Ile8]AngII binding by MTSEA+ reagent” value [1] is listed as “approximately 30%”.

For `CCCc1nc(C(C)(C)O)c(C(=O)O)n1Cc1ccc(-c2cc(Cc3ccc(OCOC)cc3)ccc2-c2nnn[nH]2)cc1` [R781254], the “Pharmacological behaviour toward IP production (agonism / neutral antagonism / inverse agonism)” value [2] was “inverse agonism”, the Kd [3] was 0.396 ± 0.08 µM and the “Kd ratio relative to olmesartan (in parentheses)” value (from here on “Kd ratio relative to olmesartan”) [3] was 172 fold.

With `CCCc1nc(C(C)(C)O)c(C(N)=O)n1Cc1ccc(-c2cc(Cc3ccccc3)ccc2-c2nnn[nH]2)cc1` [R801832] the “Pharmacological behaviour toward IP production (agonism / neutral antagonism / inverse agonism)” value [2] was “agonism”, the Kd [3] was 0.276 ± 0.022 µM and the “Kd ratio relative to olmesartan” value [3] was 100 fold and 120 fold.

For `CCCc1nc(C(C)C)c(C(N)=O)n1Cc1ccc(-c2cc(Cc3ccc(O)cc3)ccc2-c2nnn[nH]2)cc1` [R795100], the “Pharmacological behaviour toward IP production (agonism / neutral antagonism / inverse agonism)” value [2] was “agonism” and the Kd [3] was 0.179 ± 0.084 µM.

With `CCCc1nc(C(C)(C)O)c(C(=O)O)n1Cc1ccc(-c2cc(Cc3ccc(O)cc3)ccc2-c2nnn[nH]2)cc1` [R781253] the “Pharmacological behaviour toward IP production (agonism / neutral antagonism / inverse agonism)” value [2] was “inverse agonism”, the Kd [3] was 0.021 ± 0.01 µM and the “Kd ratio relative to olmesartan” value [3] was 9.1 fold.

For `CCCc1nc(C(C)(C)O)c(C(=O)O)n1Cc1ccc(-c2cc(Cc3cccc(O)c3)ccc2-c2nnn[nH]2)cc1` [R791212], the “Pharmacological behaviour toward IP production (agonism / neutral antagonism / inverse agonism)” value [2] was “neutral antagonism” and the Kd [3] was 0.125 ± 0.026 µM.
